Source: patent US12421242B2, “Substituted tetrahydropyrrolo-pyridinone compounds and their use in treating medical conditions” (Karuna Therapeutics, Inc., priority 2022, dated 2025)

Test system: AMP-evoked hyperlocomotion
Experiment: Amphetamine-evoked hyperlocomotion in rats (open field)
Type: in vivo
Conditions: adult male Sprague Dawley rats; 0.5 mg/kg amphetamine s.c.; distance traveled during the last 60 minutes of the 90-minute session
Procedure: Compounds may be tested for ability to impact behavior activity of rats according to the following procedures. Animals: Adult male, Sprague Dawley rats (Envigo, Indianapolis, IN, USA) are housed in a colony maintained at 23° C. with 12 h light/dark cycles (lights on at 0600 hours). All animals weigh 290-330 g at the beginning of the study and are equally divided into 5 groups (n=8 per group) and received one of the treatment conditions listed below. Behavioral Procedures: Studies are conducted in MedAssociates open field chambers (27.3 cm×27.3 cm×20.3 cm, MedAssociates, St. Albans, VT) in which movement is automatically tracked and recorded by 16 beam arrays. The administration pretreatment of the test article is determined to coincide with Tmax at the time of the amphetamine-evoked session with optimal route of administration. All groups are subcutaneously treated with 0.5 mg/kg amphetamine (AMP). The test article is tested in three dose groups with a half-log increase between doses. […] Locomotor data (distance traveled) is recorded as 5-minute bins throughout the 90-minute session. […] Statistical Analysis: Spontaneous locomotion (prior to AMP administration) is calculated as the total distance traveled during the first 30 minutes of the experimental session. AMP-evoked responses are calculated as the total distance traveled during the last 60 minutes of the experimental session which commenced immediately after AMP administration. Locomotor data may be analyzed by a one-way ANOVA. When there is a significant overall ANOVA, post hoc comparisons may be made by Dunnett's test with statistical significance determined as p<0.05. […] Behavioral Procedures: Studies were conducted in MedAssociates open field chambers (27.3 cm×27.3 cm×20.3 cm, MedAssociates, St. Albans, VT) in which movement was automatically tracked and recorded by 16 beam arrays. Administration pretreatment of the test article was determined to coincide with Tmax at the time of the amphetamine-evoked session with optimal route of administration. […]

SMILES	Dose Amount of Compound at which rats displayed a reduction in amphetamine-evoked hyperlocomotion activity
COc1c2c(n(C)c(=O)c1C)CN(C(=O)c1cnn(C(F)(F)F)c1)C2 [Compound I-87]	32 mg/kg
Cc1c2c(n(C)c(=O)c1Cl)CN(C(=O)c1cnn(C(F)(F)F)c1)C2 [Compound I-1, 3-chloro-1,4-dimethyl-6-(1-(Trifluoromethyl)-1H-pyrazole-4-carbonyl)-1,5,6,7-tetrahydro-2H-pyrrolo[3,4-b]pyridin-2-one]	32 mg/kg
Cc1c2c(n(C)c(=O)c1Cl)CN(C(=O)c1cnn(C(F)(F)F)c1)[C@@H]2C [Compound I-76, (R)-3-Chloro-1,4,5-trimethyl-6-(1-(trifluoromethyl)-1H-pyrazole-4-carbonyl)-1,5,6,7-tetrahydro-2H-pyrrolo[3,4-b]pyridin-2-one]	3.2 mg/kg
